Data reported in patent US12319655B2, “RAF kinase inhibitors and methods of use thereof” (Deciphera Pharmaceuticals, LLC, priority 2021, dated 2025).
pIC50: −log10 of the molar value. Each block holds one compound with its values, some of them ahead of it.

Experiments:
A375 cells = assay: A375 Cell Proliferation Assay (1); type: cell-based; settings: Homo sapiens, A-375
Summary of the method: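 Resazurin fluorescence (excitation 540 nm, emission 600 nm, after a further 5-6 h) gave IC50s from triplicate compound dilution series.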

[1] = target: B-Raf (V600E) (SEQ. ID NO: 4) kinase (Homo sapiens (Human), UniProt P15056, V600E); assay: Biochemical Assay for B-Raf (V600E) (1); settings: Table J, BRAF V600E, assay version (1); read-out: BRAF VE (1) IC50
Sequence of B-Raf (V600E) (SEQ. ID NO: 4) kinase (P15056 416-766 V600E): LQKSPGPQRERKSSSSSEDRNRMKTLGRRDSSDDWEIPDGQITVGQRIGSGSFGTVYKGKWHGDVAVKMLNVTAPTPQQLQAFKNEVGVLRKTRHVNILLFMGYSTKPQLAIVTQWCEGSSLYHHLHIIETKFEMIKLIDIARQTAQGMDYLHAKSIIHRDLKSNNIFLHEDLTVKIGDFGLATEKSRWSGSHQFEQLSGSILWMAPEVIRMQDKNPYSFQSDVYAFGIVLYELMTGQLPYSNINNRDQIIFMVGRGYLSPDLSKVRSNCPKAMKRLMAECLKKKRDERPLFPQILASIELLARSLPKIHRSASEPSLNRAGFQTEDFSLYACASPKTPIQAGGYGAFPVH
Summary of the method: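 Coupled pyruvate kinase/lactate dehydrogenase assay: 0.03 nM B-Raf V600E, 30.1 nM MEK, 1 mM ATP, pH 7.5 Tris/MgCl2 buffer, 1% DMSO. NADH oxidation followed at 340 nm for 6 h at 30 °C; rate from 3–4 h converted to percent inhibition, IC50 by four-parameter fit.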

H2405 cells = assay: H2405 Cell Proliferation Assay (1); type: cell-based; settings: Homo sapiens, NCI-H2405
Summary of the method: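 Viability was read by resazurin reduction (ex 540 nm, em 600 nm; 5-6 h with 40 μL of 440 μM stock) after 67-72 h compound exposure at 37 °C.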

[2] = target: C-Raf kinase (SEQ. ID NO: 3) (Homo sapiens (Human), UniProt P04049, Y340D/Y341D); assay: Biochemical Assay for C-Raf (1); settings: Table J, assay version (1); read-out: CRAF (1) IC50
Sequence of C-Raf kinase (SEQ. ID NO: 3) (P04049 307-648 Y340D/Y341D): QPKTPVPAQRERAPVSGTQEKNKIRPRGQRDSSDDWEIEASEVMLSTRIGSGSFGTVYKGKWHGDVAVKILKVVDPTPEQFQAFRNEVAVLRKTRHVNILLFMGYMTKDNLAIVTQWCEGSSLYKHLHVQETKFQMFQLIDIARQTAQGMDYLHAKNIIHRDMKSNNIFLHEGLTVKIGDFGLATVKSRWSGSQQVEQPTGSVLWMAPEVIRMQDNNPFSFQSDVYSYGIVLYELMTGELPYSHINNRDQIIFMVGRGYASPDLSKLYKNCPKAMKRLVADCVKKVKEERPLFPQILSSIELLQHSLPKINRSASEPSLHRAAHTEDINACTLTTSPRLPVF
Summary of the method: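 Coupled pyruvate kinase/LDH assay tracking NADH oxidation at 340 nm, with 0.43 nM C-Raf, 30.1 nM MEK and 1 mM ATP in pH 7.5 Tris buffer (15 mM MgCl2, 1% DMSO final). Read continuously for 6 h at 30 °C, rate taken from the 4–5 h window. IC50 from four-parameter fit of percent inhibition.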

Compound: COC(=O)Nc1cc(-c2cnnc(-c3cc(NC(=O)c4ccnc(C(C)(C)C#N)c4)cnc3C)c2)ccn1 [Example 306]
pIC50 (A375 cells): 5.00 to 6.00 | pIC50 [1]: 6.30 to 7.00 | pIC50 (H2405 cells): 5.00 to 6.00 | pIC50 [2]: 6.30 to 7.00

Compound: Cc1cc(F)c(NC(=O)c2ccnc(C(F)F)c2)cc1-c1ccnc(-c2ccnc(NC(=O)C3CC3)c2)c1 [Example 307]
pIC50 (A375 cells): 6.00 to 6.30 | pIC50 [1]: ≥ 7.00 | pIC50 (H2405 cells): ≥ 7.00 | pIC50 [2]: ≥ 7.00

Compound: COC(=O)Nc1cc(-c2cc(-c3cc(NC(=O)c4ccnc(C(C)(C)C#N)c4)c(F)cc3C)ccn2)ccn1 [Example 308]
pIC50 (A375 cells): ≥ 7.00 | pIC50 [1]: ≥ 7.00 | pIC50 (H2405 cells): ≥ 7.00 | pIC50 [2]: ≥ 7.00

Compound: COC(=O)Nc1cc(-c2cnnc(-c3cc(NC(=O)c4cccc(C(C)(C)C#N)c4)ccc3C)c2)ccn1 [Example 311]
pIC50 (A375 cells): ≥ 7.00 | pIC50 [1]: ≥ 7.00 | pIC50 (H2405 cells): 6.30 to 7.00 | pIC50 [2]: ≥ 7.00

Compound: COC(=O)Nc1cc(-c2cc(-c3cc(NC(=O)c4ccnc(C(F)(F)F)c4)cnc3C)ccn2)ccn1 [Example 312]
pIC50 (A375 cells): 6.30 to 7.00 | pIC50 [1]: 6.00 to 6.30 | pIC50 (H2405 cells): 6.30 to 7.00 | pIC50 [2]: ≥ 7.00

Compound: COC(=O)Nc1cc(-c2cc(-c3cc(NC(=O)c4ccnc(C(F)F)c4)cnc3C)ccn2)ccn1 [Example 313]
pIC50 (A375 cells): 5.00 to 6.00 | pIC50 [1]: 5.00 to 6.00 | pIC50 (H2405 cells): 6.30 to 7.00 | pIC50 [2]: ≥ 7.00

Compound: Cc1ccc(NC(=O)c2cn(C(C)C)nn2)cc1-c1cc(-c2ccnc(NC(=O)C3CC3)c2)cnn1 [Example 320]
pIC50 (A375 cells): 5.00 to 6.00 | pIC50 [1]: 6.30 to 7.00 | pIC50 (H2405 cells): 5.00 to 6.00 | pIC50 [2]: ≥ 7.00

Compound: Cc1ccc(NC(=O)c2cnn(C(C)(C)C)c2)cc1-c1cc(-c2ccnc(NC(=O)C3CC3)c2)cnn1 [Example 321]
pIC50 (A375 cells): 6.30 to 7.00 | pIC50 [1]: ≥ 7.00 | pIC50 (H2405 cells): 6.30 to 7.00 | pIC50 [2]: ≥ 7.00

Compound: COC(=O)Nc1cc(-c2cc(-c3cc(NC(=O)c4ccnc(C(C)(C)F)c4)cnc3C)ccn2)ccn1 [Example 323]
pIC50 (A375 cells): 6.30 to 7.00 | pIC50 [1]: ≥ 7.00 | pIC50 (H2405 cells): 6.30 to 7.00 | pIC50 [2]: ≥ 7.00

Compound: Cc1ccc(NC(=O)c2ccnc(C3CC3)c2)cc1-c1cc(-c2ccnc(NC(=O)C3CC3)c2)cnn1 [Example 331]
pIC50 (A375 cells): 6.30 to 7.00 | pIC50 [1]: ≥ 7.00 | pIC50 (H2405 cells): 6.30 to 7.00 | pIC50 [2]: ≥ 7.00

Compound: Cc1ccc(NC(=O)c2ccnc(S(C)(=O)=O)c2)cc1-c1cc(-c2ccnc(NC(=O)C3CC3)c2)cnn1 [Example 332]
pIC50 (A375 cells): 5.00 to 6.00 | pIC50 [1]: ≥ 7.00 | pIC50 (H2405 cells): 5.00 to 6.00 | pIC50 [2]: ≥ 7.00

Compound: CNC(=O)c1cc(-c2cnnc(-c3cc(NC(=O)CCC(C)(C)C#N)cnc3C)c2)ccn1 [Example 333]
pIC50 (A375 cells): 5.00 to 6.00 | pIC50 [1]: 5.00 to 6.00 | pIC50 (H2405 cells): 5.00 to 6.00 | pIC50 [2]: 5.00 to 6.00

Compound: Cc1ccc(NC(=O)C2CN(C)CCO2)cc1-c1cccc(-c2cc(NC(=O)C3CC3)ncn2)c1 (stereo not shown) [Example 346]
pIC50 (A375 cells): 5.00 to 6.00 | pIC50 [1]: ≥ 7.00 | pIC50 (H2405 cells): 5.00 to 6.00 | pIC50 [2]: ≥ 7.00

Compound: CO[C@H]1CC[C@H](C(=O)Nc2cnc(C)c(-c3cccc(-c4cc(NC(=O)C5CC5)ncn4)c3)c2)CC1 [Example 347]
pIC50 (A375 cells): 5.00 to 6.00 | pIC50 [1]: ≥ 7.00 | pIC50 (H2405 cells): 5.00 to 6.00 | pIC50 [2]: 6.30 to 7.00

Compound: Cc1ncc(NC(=O)C2CCOC(C)(C)C2)cc1-c1cccc(-c2cc(NC(=O)C3CC3)ncn2)c1 (stereo not shown) [Example 348]
pIC50 (A375 cells): 5.00 to 6.00 | pIC50 [1]: ≥ 7.00 | pIC50 (H2405 cells): 5.00 to 6.00 | pIC50 [2]: ≥ 7.00

Compound: CNC(=O)c1cc(-c2cc(-c3cc(NC(=O)CCC(C)(C)C#N)ccc3C)ccn2)ccn1 [Example 357]
pIC50 (A375 cells): 5.00 to 6.00 | pIC50 [1]: 6.00 to 6.30 | pIC50 (H2405 cells): 5.00 to 6.00 | pIC50 [2]: ≥ 7.00

Compound: CNC(=O)c1cc(-c2cc(-c3cc(NC(=O)COCC4CC4)ccc3C)ccn2)ccn1 [Example 358]
pIC50 (A375 cells): 5.00 to 6.00 | pIC50 [1]: 6.00 to 6.30 | pIC50 (H2405 cells): 5.00 to 6.00 | pIC50 [2]: ≥ 7.00

Compound: COC(=O)Nc1cc(-c2cnnc(-c3cc(NC(=O)CN4CCCC4)cnc3C)c2)ccn1 [Example 359]
pIC50 (A375 cells): 5.00 to 6.00 | pIC50 [1]: 5.00 to 6.00 | pIC50 (H2405 cells): 5.00 to 6.00 | pIC50 [2]: 5.00 to 6.00

Compound: COC(=O)Nc1cc(-c2cnnc(-c3cc(NC(=O)COCC4CC4)ccc3C)c2)ccn1 [Example 360]
pIC50 (A375 cells): 5.00 to 6.00 | pIC50 [1]: 5.00 to 6.00 | pIC50 (H2405 cells): 5.00 to 6.00 | pIC50 [2]: 6.30 to 7.00

Second part, the compound after the results:

pIC50 (A375 cells): 5.00 to 6.00 | pIC50 [1]: 6.30 to 7.00 | pIC50 (H2405 cells): 5.00 to 6.00 | pIC50 [2]: 6.30 to 7.00
Compound: CNC(=O)c1cc(-c2cnnc(-c3cc(NC(=O)c4ccnc(C(C)(C)F)c4)cnc3C)c2)ccn1 [Example 309]

pIC50 (A375 cells): 6.30 to 7.00 | pIC50 [1]: ≥ 7.00 | pIC50 (H2405 cells): 6.30 to 7.00 | pIC50 [2]: ≥ 7.00
Compound: Cc1ncc(NC(=O)c2ccnc(C(C)(C)F)c2)cc1-c1cc(-c2ccnc(NC(=O)C3CC3)c2)cnn1 [Example 310]

pIC50 (A375 cells): 6.30 to 7.00 | pIC50 [1]: ≥ 7.00 | pIC50 (H2405 cells): 6.00 to 6.30 | pIC50 [2]: 6.30 to 7.00
Compound: CNC(=O)c1cc(-c2cnnc(-c3cc(NC(=O)c4ccnc(C(C)(C)C#N)c4)ccc3C)c2)ccn1 [Example 314]

pIC50 (A375 cells): ≥ 7.00 | pIC50 [1]: ≥ 7.00 | pIC50 (H2405 cells): ≥ 7.00 | pIC50 [2]: ≥ 7.00
Compound: Cc1ccc(NC(=O)c2ccnc(C(C)(C)F)c2)cc1-c1cc(-c2ccnc(NC(=O)C3CC3)c2)cnn1 [Example 315]

pIC50 (A375 cells): 5.00 to 6.00 | pIC50 [1]: 6.30 to 7.00 | pIC50 (H2405 cells): 5.00 to 6.00 | pIC50 [2]: 6.30 to 7.00
Compound: CNC(=O)c1cc(-c2cnnc(-c3cc(NC(=O)c4ccnc(C(C)(C)C#N)c4)cnc3C)c2)ccn1 [Example 316]

pIC50 (A375 cells): 5.00 to 6.00 | pIC50 [1]: 5.00 to 6.00 | pIC50 (H2405 cells): 5.00 to 6.00 | pIC50 [2]: 6.30 to 7.00
Compound: CNC(=O)c1cc(-c2cnnc(-c3cc(NC(=O)c4ccnc(C5CC5)c4)cnc3C)c2)ccn1 [Example 317]

pIC50 (A375 cells): 5.00 to 6.00 | pIC50 [1]: 5.00 to 6.00 | pIC50 (H2405 cells): 5.00 to 6.00 | pIC50 [2]: 6.30 to 7.00
Compound: CNC(=O)c1cc(-c2cnnc(-c3cc(NC(=O)c4ccnc(C(F)(F)F)c4)cnc3C)c2)ccn1 [Example 318]

pIC50 (A375 cells): ≥ 7.00 | pIC50 [1]: ≥ 7.00 | pIC50 (H2405 cells): ≥ 7.00 | pIC50 [2]: ≥ 7.00
Compound: COC(C)(C)c1cc(C(=O)Nc2ccc(C)c(-c3cc(-c4ccnc(NC(=O)C5CC5)c4)cnn3)c2)ccn1 [Example 319]

pIC50 (A375 cells): 5.00 to 6.00 | pIC50 [1]: 5.00 to 6.00 | pIC50 (H2405 cells): 5.00 to 6.00 | pIC50 [2]: 5.00 to 6.00
Compound: CNC(=O)c1cc(-c2cnnc(-c3cc(NC(=O)c4ccc(Cl)c(OC)c4)cnc3C)c2)ccn1 [Example 322]

pIC50 (A375 cells): 6.30 to 7.00 | pIC50 [1]: ≥ 7.00 | pIC50 (H2405 cells): 6.30 to 7.00 | pIC50 [2]: 6.30 to 7.00
Compound: CNC(=O)c1cc(-c2cnnc(-c3cc(NC(=O)c4ccnc(C(C)(C)F)c4)ccc3C)c2)ccn1 [Example 325]

pIC50 (A375 cells): 5.00 to 6.00 | pIC50 [1]: 6.30 to 7.00 | pIC50 (H2405 cells): 5.00 to 6.00 | pIC50 [2]: ≥ 7.00
Compound: CNC(=O)c1cc(-c2cnnc(-c3cc(NC(=O)c4ccnc(C5CC5)c4)ccc3C)c2)ccn1 [Example 326]

pIC50 (A375 cells): 5.00 to 6.00 | pIC50 [1]: 6.00 to 6.30 | pIC50 (H2405 cells): 5.00 to 6.00 | pIC50 [2]: ≥ 7.00
Compound: CNC(=O)c1cc(-c2cnnc(-c3cc(NC(=O)c4ccnc(C(F)F)c4)ccc3C)c2)ccn1 [Example 327]

pIC50 (A375 cells): 6.30 to 7.00 | pIC50 [1]: ≥ 7.00 | pIC50 (H2405 cells): 6.30 to 7.00 | pIC50 [2]: 6.30 to 7.00
Compound: CNC(=O)c1cc(-c2cnnc(-c3cc(NC(=O)c4ccnc(C(C)(C)OC)c4)ccc3C)c2)ccn1 [Example 328]

pIC50 (A375 cells): 6.00 to 6.30 | pIC50 [1]: ≥ 7.00 | pIC50 (H2405 cells): 6.00 to 6.30 | pIC50 [2]: ≥ 7.00
Compound: CNC(=O)c1cc(-c2cnnc(-c3cc(NC(=O)c4ccc(F)c(C(F)(F)F)c4)ccc3C)c2)ccn1 [Example 329]

pIC50 (A375 cells): 5.00 to 6.00 | pIC50 [1]: 5.00 to 6.00 | pIC50 (H2405 cells): 5.00 to 6.00 | pIC50 [2]: 6.30 to 7.00
Compound: CNC(=O)c1cc(-c2cnnc(-c3cc(NC(=O)c4ccnc(C(F)F)c4)cnc3C)c2)ccn1 [Example 330]
